# Target: TcdB1 (Clostridioides difficile, UniProt P18177)
# Sequence (P18177 2-2366 limits assumed): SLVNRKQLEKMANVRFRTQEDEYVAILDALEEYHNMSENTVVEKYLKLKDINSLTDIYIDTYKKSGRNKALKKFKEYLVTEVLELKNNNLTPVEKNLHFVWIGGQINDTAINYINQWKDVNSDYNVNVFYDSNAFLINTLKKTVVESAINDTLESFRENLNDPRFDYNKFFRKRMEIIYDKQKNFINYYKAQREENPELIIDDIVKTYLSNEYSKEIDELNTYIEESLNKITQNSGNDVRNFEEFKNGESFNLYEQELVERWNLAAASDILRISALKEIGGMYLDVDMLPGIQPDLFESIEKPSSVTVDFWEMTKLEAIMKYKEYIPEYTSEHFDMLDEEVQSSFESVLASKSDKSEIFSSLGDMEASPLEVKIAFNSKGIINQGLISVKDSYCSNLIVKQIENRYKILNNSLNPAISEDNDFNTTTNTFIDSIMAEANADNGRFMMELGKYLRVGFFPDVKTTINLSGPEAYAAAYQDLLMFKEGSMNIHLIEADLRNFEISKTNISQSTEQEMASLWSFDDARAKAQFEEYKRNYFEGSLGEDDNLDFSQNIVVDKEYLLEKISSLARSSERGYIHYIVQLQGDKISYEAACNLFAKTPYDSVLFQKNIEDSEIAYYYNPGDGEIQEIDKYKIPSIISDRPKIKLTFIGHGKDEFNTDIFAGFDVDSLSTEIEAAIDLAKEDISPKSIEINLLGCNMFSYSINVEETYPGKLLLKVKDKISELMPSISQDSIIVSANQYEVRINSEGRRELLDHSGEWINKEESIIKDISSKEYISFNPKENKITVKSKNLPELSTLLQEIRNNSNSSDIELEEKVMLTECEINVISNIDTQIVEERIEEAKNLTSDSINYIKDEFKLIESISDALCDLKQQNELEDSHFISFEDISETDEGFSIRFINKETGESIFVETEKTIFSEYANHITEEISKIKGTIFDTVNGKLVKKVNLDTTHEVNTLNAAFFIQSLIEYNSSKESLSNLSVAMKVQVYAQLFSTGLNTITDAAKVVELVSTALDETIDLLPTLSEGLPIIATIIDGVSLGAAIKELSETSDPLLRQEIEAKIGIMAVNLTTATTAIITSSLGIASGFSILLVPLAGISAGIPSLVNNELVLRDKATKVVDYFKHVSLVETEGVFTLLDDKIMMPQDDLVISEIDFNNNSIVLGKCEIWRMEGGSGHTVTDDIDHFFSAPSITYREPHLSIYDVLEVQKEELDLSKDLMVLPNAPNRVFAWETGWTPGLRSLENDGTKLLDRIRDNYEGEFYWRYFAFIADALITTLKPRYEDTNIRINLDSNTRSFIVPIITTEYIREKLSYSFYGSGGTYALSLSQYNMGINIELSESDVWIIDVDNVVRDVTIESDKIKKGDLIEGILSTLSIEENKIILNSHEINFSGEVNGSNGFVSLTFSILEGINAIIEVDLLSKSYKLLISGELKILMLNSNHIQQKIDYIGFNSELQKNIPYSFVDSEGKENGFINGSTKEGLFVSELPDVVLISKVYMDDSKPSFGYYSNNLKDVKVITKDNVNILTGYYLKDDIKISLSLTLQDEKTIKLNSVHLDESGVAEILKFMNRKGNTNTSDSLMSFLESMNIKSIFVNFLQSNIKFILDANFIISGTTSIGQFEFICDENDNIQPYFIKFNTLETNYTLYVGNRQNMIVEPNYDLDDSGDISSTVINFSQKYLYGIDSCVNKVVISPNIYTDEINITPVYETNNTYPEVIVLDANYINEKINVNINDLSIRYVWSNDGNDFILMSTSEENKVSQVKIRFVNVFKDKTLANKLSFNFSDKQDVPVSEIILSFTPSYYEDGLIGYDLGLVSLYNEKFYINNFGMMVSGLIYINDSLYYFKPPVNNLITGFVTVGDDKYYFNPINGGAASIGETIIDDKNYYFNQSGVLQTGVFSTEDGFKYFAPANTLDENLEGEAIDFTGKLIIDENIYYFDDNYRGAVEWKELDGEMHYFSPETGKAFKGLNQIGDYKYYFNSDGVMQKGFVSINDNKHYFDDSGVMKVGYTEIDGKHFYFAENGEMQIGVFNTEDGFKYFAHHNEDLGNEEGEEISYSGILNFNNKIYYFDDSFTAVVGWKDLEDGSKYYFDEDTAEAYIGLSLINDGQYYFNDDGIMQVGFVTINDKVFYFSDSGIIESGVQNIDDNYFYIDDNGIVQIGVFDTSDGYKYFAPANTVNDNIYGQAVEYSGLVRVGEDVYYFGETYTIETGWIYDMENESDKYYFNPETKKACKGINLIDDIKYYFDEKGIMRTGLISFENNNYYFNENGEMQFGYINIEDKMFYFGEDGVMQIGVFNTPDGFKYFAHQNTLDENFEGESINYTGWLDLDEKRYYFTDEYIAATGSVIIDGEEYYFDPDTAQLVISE
row,Sequence,TcdB inhibitory activity of PepB2/PepB1 substitution variants
1,NVFKSNTISDKISFNFSDK [PepB2-G5S],activity was also lost
2,NVFKDNTISDKISFNFSDK [PepB2-G5D],inhibitor activity was lost
3,NVFKGKTISDKISFNFSDK [PepB2-N6K],TcdB inhibitory activity also disappeared
4,NVFKDKTISDKISFNFSDK [PepB2-GN5-6DK],inhibitory activity of the resulting peptide was lost
5,NVFKGNTLANKLSFNFSDK [PepB1-DK5-6GN],Inhibitory activity was gained

# Source: patent US10709758B2 (priority 2015, dated 2020)
